Reference: BindingDB's records for doi:10.1021/jm0503244 (Merck Research Laboratories, 2005)

Assays:
Experiment in all cases: S1P Receptor Binding Assay
[1] = target: Sphingosine 1-phosphate receptor 5 (Homo sapiens, UniProt Q9H228); conditions: 25 °C
Description: (§1) The assay measures the displacement of [33P]-labeled sphingosine-1-phosphate (S1P) by test compounds from human S1P receptors expressed on CHO cell membranes. Binding was performed for 60 min at room temperature and terminated by collecting the membranes onto GF/B filter plates with a Packard Filtermate Universal Harvester. Filter bound radionuclide was measured on a PerkinElmer 1450 MicroBeta. Specific binding was calculated by subtracting radioactivity that remained in the presence of 1000-fold excess of unlabeled S1P.

[2] = target: T1, Sphingosine 1-phosphate receptor 4 (Homo sapiens, UniProt O95977); conditions: 25 °C
T1 sequence (O95977 whole entry): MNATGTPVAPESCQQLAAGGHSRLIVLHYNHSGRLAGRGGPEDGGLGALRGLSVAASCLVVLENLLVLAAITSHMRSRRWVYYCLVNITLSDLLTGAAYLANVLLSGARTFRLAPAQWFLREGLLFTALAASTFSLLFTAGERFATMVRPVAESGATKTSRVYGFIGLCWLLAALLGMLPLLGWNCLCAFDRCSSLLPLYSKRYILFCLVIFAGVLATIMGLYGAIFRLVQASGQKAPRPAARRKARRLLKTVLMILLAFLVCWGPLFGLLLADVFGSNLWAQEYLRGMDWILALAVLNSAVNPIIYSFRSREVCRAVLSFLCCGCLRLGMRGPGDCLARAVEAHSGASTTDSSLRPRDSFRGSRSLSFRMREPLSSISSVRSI
Description: as §1

[3] = target: Sphingosine 1-phosphate receptor 3 (Homo sapiens, UniProt Q99500); conditions: pH 7.5; 22 °C
Sequence of Sphingosine 1-phosphate receptor 3 (Q99500 whole entry): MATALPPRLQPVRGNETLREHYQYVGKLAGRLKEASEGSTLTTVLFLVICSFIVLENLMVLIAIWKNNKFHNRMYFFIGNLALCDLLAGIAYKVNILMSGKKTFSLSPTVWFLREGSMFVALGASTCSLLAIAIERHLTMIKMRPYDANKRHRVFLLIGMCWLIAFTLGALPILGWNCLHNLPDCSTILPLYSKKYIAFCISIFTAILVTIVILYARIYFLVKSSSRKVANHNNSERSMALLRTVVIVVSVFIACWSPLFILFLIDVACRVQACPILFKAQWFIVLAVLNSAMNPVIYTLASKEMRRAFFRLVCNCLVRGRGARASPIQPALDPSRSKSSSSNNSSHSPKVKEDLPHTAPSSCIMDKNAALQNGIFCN
Description: as §1

Sequence of Sphingosine 1-phosphate receptor 5 (Q9H228 whole entry): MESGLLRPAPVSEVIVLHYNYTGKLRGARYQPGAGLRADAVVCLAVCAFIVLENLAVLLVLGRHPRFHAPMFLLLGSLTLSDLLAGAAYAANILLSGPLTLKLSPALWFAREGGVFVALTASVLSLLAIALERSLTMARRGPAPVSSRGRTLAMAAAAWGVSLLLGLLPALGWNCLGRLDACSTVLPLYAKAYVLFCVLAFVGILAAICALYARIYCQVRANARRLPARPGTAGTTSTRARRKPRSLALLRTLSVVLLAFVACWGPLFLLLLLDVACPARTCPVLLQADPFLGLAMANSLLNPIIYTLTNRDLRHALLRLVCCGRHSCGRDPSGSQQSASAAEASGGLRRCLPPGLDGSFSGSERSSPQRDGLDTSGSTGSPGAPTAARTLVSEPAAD

Q: Which results are given for `CCCCc1ccc(-c2nc(-c3ccc(CN4CC(C(=O)O)C4)cc3)no2)cc1` [1-({4-[5-(4-butylphenyl)-1,2,4-oxadiazol-3-yl]phenyl}methyl)azetidine-3-carboxylic acid]?
A: IC50 [1]: 2.4 nM; IC50 [2]: 350 nM

Q: For `CC(C)(C)Cc1ccc(-c2nc(-c3ccc(CN4CC(C(=O)O)C4)cc3)no2)cc1` [1-[(4-{5-[4-(2,2-dimethylpropyl)phenyl]-1,2,4-oxadiazol-3-yl}phenyl)methyl]azetidine-3-carboxylic acid], which IC50 [3] is on record?
A: Its IC50 is 10000 nM.

Q: How did the IC50 [3] turn out when `CCC(C)(C)c1ccc(-c2nc(-c3ccc(CN4CC(C(=O)O)C4)cc3)no2)cc1` [1-[(4-{5-[4-(2-methylbutan-2-yl)phenyl]-1,2,4-oxadiazol-3-yl}phenyl)methyl]azetidine-3-carboxylic acid] was run?
A: The IC50 was 3090 nM.
